Data reported in US10336730B2, “Substituted glycine derived FXIA inhibitors” (BRISTOL-MYERS SQUIBB COMPANY, priority 2015, dated 2019).

Columns and labels:
Type in all cases: biochemical
[1] = target: T1, purified human plasma kallikrein (Homo sapiens, UniProt P03952); test: Plasma kallikrein enzyme inhibition assay (chromogenic substrate S-2302), Ki; conditions: substrate S-2302, pH 7.5
T1 construct: purchased Enzyme Research Laboratories
Procedure: The effectiveness of compounds of the present invention as inhibitors of the coagulation Factors XIa, VIIa, IXa, Xa, XIIa, plasma kallikrein, thrombin, chemytrypsin or trypsin can be determined using a relevant purified serine protease, respectively, and an appropriate synthetic substrate. The rate of hydrolysis of the chromogenic or fluorogenic substrate by the relevant serine protease was measured both in the absence and presence of compounds of the present invention. […] A decrease in the rate of absorbance or fluorescence change in the presence of inhibitor is indicative of enzyme inhibition. Such methods are known to one skilled in the art. The results of this assay are expressed as the inhibitory constant, Ki.
Plasma kallikrein determinations were made in 0.1 M sodium phosphate buffer at a pH of 7.5 containing 0.1-0.2 M sodium chloride and 0.5% PEG 8000. Determinations were made using purified human plasma kallikrein (Enzyme Research Laboratories) at a final assay concentration of […] and the synthetic substrate S-2302 (H-(D)-Pro-Phe-Arg-pNA; CHROMOGENIX®) at a concentration of 0.00008-0.0004 M.
Values of Ki were determined by allowing the protease to react with the substrate in the presence of the inhibitor. Reactions were allowed to go for periods of 20-180 minutes (depending on the protease) and the velocities (rate of absorbance or fluorescence change versus time) were measured. The following relationships were used to calculate Ki values: (Vmax*S)/(Km+S) (vo−vs)/vs=I/(Ki*(1+S/Km)) for a competitive inhibitor with one binding site; or vs/vo=A+(B−A)/(1+(IC50/(I)^n)); and Ki=IC50/(1+S/Km) for a competitive inhibitor where: […]

[2] = target: T2, purified human Factor XIa (Homo sapiens, UniProt P03951); test: Factor XIa enzyme inhibition assay (chromogenic substrate S-2366), Ki; conditions: substrate S-2366, pH 7.4
T2 construct: purchased Haematologic Technologies
T2 sequence (P03951 388-625 limits assumed): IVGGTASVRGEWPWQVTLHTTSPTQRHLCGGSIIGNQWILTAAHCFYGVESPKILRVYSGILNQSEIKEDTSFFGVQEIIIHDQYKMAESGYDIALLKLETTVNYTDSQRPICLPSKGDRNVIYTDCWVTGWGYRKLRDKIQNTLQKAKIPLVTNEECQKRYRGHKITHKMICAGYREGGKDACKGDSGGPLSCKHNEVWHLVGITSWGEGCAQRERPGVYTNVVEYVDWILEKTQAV
T2 sequence (P03951 19-387 partner limits assumed): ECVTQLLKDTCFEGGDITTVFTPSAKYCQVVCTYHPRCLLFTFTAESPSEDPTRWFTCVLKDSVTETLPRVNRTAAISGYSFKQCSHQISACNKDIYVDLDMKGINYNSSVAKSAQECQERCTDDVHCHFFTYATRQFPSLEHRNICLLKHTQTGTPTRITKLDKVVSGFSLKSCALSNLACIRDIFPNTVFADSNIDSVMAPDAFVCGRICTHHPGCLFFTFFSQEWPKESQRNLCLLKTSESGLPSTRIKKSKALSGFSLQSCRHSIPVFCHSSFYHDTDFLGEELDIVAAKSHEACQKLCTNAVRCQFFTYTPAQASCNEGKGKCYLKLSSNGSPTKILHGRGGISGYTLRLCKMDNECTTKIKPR
Procedure, shortened: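 Purified human Factor XIa ([…] final) with chromogenic substrate S-2366 (0.0002-0.001 M) in 50 mM HEPES pH 7.4, 145 mM NaCl, 5 mM KCl, 0.1% PEG 8000. Velocities measured over 20-180 minutes with and without inhibitor; Ki derived assuming competitive inhibition, e.g. Ki=IC50/(1+S/Km).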

[3] = tested on: citrated normal human plasma; test: Activated Partial Thromboplastin Time (aPTT) plasma clotting assay; conditions: inhibitor concentration required to increase the clotting time by 1.5 times
Description: The effectiveness of compounds of the present invention as inhibitors of coagulation can be determined using a standard or modified clotting assay. An increase in the plasma clotting time in the presence of inhibitor is indicative of anticoagulation. Relative clotting time is the clotting time in the presence of an inhibitor divided by the clotting time in the absence of an inhibitor. The results of this assay may be expressed as IC1.5× or IC2×, the inhibitor concentration required to increase the clotting time by 1.5 times or 2 times, respectively, relative to the clotting time in the absence of the inhibitor. The IC1.5× or IC2× is found by linear interpolation from relative clotting time versus inhibitor concentration plots using inhibitor concentrations that span the IC1.5× or IC2×.
Clotting times are determined using citrated normal human plasma as well as plasma obtained from a number of laboratory animal species (e.g., rat, or rabbit). A compound is diluted into plasma beginning with a 10 mM DMSO stock solution. The final concentration of DMSO is less than 2%. Plasma clotting assays are performed in an automated coagulation analyzer (Sysmex, Dade-Behring, Illinois). Similarly, clotting times can be determined from laboratory animal species or humans dosed with compounds of the invention.
Activated Partial Thromboplastin Time (aPTT) is determined using ACTIN® FSL (Dade-Behring, Illinois) following the directions in the package insert. Plasma (0.05 mL) is warmed to 37° C. for 1 minute. ACTIN® FSL (0.05 mL) is added to the plasma and incubated for an additional 2 to 5 minutes. Calcium chloride (25 mM, 0.05 mL) is added to the reaction to initiate coagulation. The clotting time is the time in seconds from the moment calcium chloride is added until a clot is detected.

T1 sequence (P03952 391-638 limits assumed): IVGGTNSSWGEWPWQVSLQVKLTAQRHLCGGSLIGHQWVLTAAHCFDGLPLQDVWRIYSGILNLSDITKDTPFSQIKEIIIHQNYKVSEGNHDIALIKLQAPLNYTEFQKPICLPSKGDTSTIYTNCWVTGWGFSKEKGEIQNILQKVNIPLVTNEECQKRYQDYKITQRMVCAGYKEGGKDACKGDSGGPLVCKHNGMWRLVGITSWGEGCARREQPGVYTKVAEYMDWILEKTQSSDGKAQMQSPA
T1 sequence (P03952 20-390 partner limits assumed): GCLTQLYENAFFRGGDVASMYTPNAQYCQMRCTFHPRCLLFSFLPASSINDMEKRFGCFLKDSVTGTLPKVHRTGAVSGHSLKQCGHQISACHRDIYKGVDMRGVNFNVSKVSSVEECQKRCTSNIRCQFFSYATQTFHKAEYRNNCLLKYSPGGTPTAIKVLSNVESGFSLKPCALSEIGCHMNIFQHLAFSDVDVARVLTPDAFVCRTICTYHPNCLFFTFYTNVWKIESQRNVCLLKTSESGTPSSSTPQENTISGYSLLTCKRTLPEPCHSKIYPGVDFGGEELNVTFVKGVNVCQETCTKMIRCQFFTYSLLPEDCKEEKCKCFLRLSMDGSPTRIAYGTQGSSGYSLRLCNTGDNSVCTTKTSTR

Compound | Ki [1] | Ki [2] | aPTT (IC1.5×) [3]
O=C(O)c1ccc(NC(=O)[C@H](Cc2ccccc2)n2cnc(-c3c(-n4cc(Cl)nn4)ccc(Cl)c3F)cc2=O)cc1 [Example 9, (S)-4-(2-(4-(3-chloro-6-(4-chloro-1H-1,2,3-triazol-1-yl)-2-fluorophenyl)-6-oxopyrimidin-1(6H)-yl)-3-phenylpropanamido)benzoic Acid] | 0.036 µM | 0.00064 µM | 0.91 µM
COC(=O)Cn1cc(NC(=O)[C@H](Cc2ccccc2)n2cnc(-c3cc(Cl)ccc3-n3cc(Cl)nn3)cc2=O)cn1 [Example 10, Methyl 2-{4-[(2S)-2-{4-[5-chloro-2-(4-chloro-1H-1,2,3-triazol-1-yl)phenyl]-6-oxo-1,6-dihydropyrimidin-1-yl}-3-phenylpropanamido]-1H-pyrazol-1-yl}acetate] | 3.86 µM | 0.104 µM | 
O=C(O)Cn1cc(NC(=O)[C@H](Cc2ccccc2)n2cnc(-c3cc(Cl)ccc3-n3cc(Cl)nn3)cc2=O)cn1 [Example 11, 2-{4-[(2S)-2-{4-[5-Chloro-2-(4-chloro-1H-1,2,3-triazol-1-yl)phenyl]-6-oxo-1,6-dihydropyrimidin-1-yl}-3-phenyl-propanamido]-1H-pyrazol-1-yl}acetic Acid] | 2.1 µM | 0.0564 µM | 
O=C(Nc1ccccc1)[C@H](Cc1ccccc1)n1cnc(-c2cc(Cl)ccc2-n2cc(Cl)nn2)cc1=O [Example 12, (S)-2-(4-(5-chloro-2-(4-chloro-1H-1,2,3-triazol-1-yl)phenyl)-6-oxopyrimidin-1(6H)-yl)-N,3-diphenylpropanamide] | 1.48 µM | 0.0357 µM | 
O=C(Nc1ccncc1)[C@H](Cc1ccccc1)n1cnc(-c2cc(Cl)ccc2-n2cc(Cl)nn2)cc1=O [Example 13, (S)-2-(4-(5-chloro-2-(4-chloro-1H-1,2,3-triazol-1-yl)phenyl)-6-oxopyrimidin-1(6H)-yl)-3-phenyl-N-(pyridin-4-yl)propanamide] | 0.984 µM | 0.0436 µM | 
O=C(O)c1ccc(NC(=O)[C@H](Cc2ccccc2)n2cnc(-c3cc(Cl)ccc3-n3cc(C(F)(F)F)nn3)cc2=O)cc1 [Example 14, (S)-4-(2-(4-(5-chloro-2-(4-(trifluoromethyl)-1H-1,2,3-triazol-1-yl)phenyl)-6-oxopyrimidin-1(6H)-yl)-3-phenylpropanamido)benzoic Acid] | 0.239 µM | 0.0031 µM | 1.85 µM
O=C(O)c1ccc(NC(=O)[C@H](Cc2ccccc2)n2cnc(-c3cc(Cl)ccc3-n3cc(Cl)nn3)cc2=O)cc1 [Example 15, (S)-4-(2-(4-(5-chloro-2-(4-chloro-1H-1,2,3-triazol-1-yl)phenyl)-6-oxopyrimidin-1(6H)-yl)-3-phenylpropanamido)benzoic Acid] | 0.189 µM | 0.0025 µM | 1.74 µM
O=C(Nc1ccc2[nH]c(C(F)(F)F)nc2c1)[C@H](Cc1ccccc1)n1cnc(-c2cc(Cl)ccc2-n2cc(Cl)nn2)cc1=O [Example 16, (S)-2-(4-(5-chloro-2-(4-chloro-1H-1,2,3-triazol-1-yl)phenyl)-6-oxopyrimidin-1(6H)-yl)-3-phenyl-N-(2-(trifluoromethyl)-1H-benzo[d]imidazol-5-yl)propanamide] | 0.257 µM | 0.026 µM | 
O=C(Nc1ccc2cn[nH]c2c1)[C@H](Cc1ccccc1)n1cnc(-c2cc(Cl)ccc2-n2cc(Cl)nn2)cc1=O [Example 17, (S)-2-(4-(5-chloro-2-(4-chloro-1H-1,2,3-triazol-1-yl)phenyl)-6-oxopyrimidin-1(6H)-yl)-N-(1H-indazol-6-yl)-3-phenylpropanamide] | 0.166 µM | 0.016 µM | 17.6 µM
O=C(Nc1ccc2c(c1)OCO2)[C@H](Cc1ccccc1)n1cnc(-c2cc(Cl)ccc2-n2cc(Cl)nn2)cc1=O [Example 18, (S)—N-(benzo[d][1,3]dioxol-5-yl)-2-(4-(5-chloro-2-(4-chloro-1H-1,2,3-triazol-1-yl)phenyl)-6-oxopyrimidin-1(6H)-yl)-3-phenylpropanamide] | 1.48 µM | 0.0994 µM | 
O=C(NCc1ccccc1)[C@H](Cc1ccccc1)n1cnc(-c2cc(Cl)ccc2-n2cc(Cl)nn2)cc1=O [Example 19, (S)—N-benzyl-2-(4-(5-chloro-2-(4-chloro-1H-1,2,3-triazol-1-yl)phenyl)-6-oxopyrimidin-1(6H)-yl)-3-phenylpropanamide] | 13.3 µM | 0.357 µM | 
O=C1Cc2cc(NC(=O)[C@H](Cc3ccccc3)n3cnc(-c4cc(Cl)ccc4-n4cc(Cl)nn4)cc3=O)ccc2N1 [Example 23, (S)-2-(4-(5-chloro-2-(4-chloro-1H-1,2,3-triazol-1-yl)phenyl)-6-oxopyrimidin-1(6H)-yl)-N-(2-oxoindolin-5-yl)-3-phenylpropanamide] |  | 0.0066 µM | 8.0 µM
O=C(Nc1ccc2nccnc2c1)[C@H](Cc1ccccc1)n1cnc(-c2cc(Cl)ccc2-n2cc(Cl)nn2)cc1=O [Example 30, (S)-2-(4-(5-chloro-2-(4-chloro-1H-1,2,3-triazol-1-yl)phenyl)-6-oxopyrimidin-1(6H)-yl)-3-phenyl-N-(quinoxalin-6-yl)propanamide] |  | 0.00644 µM | 15.2 µM
O=C(Nc1ccc2c(=O)[nH]ccc2c1)[C@H](Cc1ccccc1)n1cnc(-c2cc(Cl)ccc2-n2cc(Cl)nn2)cc1=O [Example 96, (S)-2-(4-(5-chloro-2-(4-chloro-1H-1,2,3-triazol-1-yl)phenyl)-6-oxopyrimidin-1(6H)-yl)-N-(1-oxo-1,2-dihydroisoquinolin-6-yl)-3-phenylpropanamide] |  | 0.0198 µM | 13.6 µM
N#Cc1ccc(Cl)c(F)c1C1=CC(=O)N(C(Cc2ccccc2)C(=O)Nc2ccc(C(=O)O)cc2)CC1 (stereo not drawn) [Example 130, 4-{2-[4-(3-Chloro-6-cyano-2-fluorophenyl)-6-oxo-1,2,3,6-tetrahydropyridin-1-yl]-3-phenylpropanamido}benzoic Acid] |  | 0.0128 µM | 17.5 µM
O=C(O)c1ccc(NC(=O)[C@H](Cc2ccc(NC(=O)C3CC3)cc2)N2CCC(c3cc(Cl)ccc3-n3cc(Cl)nn3)=CC2=O)cc1 [Example 141, (S)-4-(2-(4-(5-chloro-2-(4-chloro-1H-1,2,3-triazol-1-yl)phenyl)-6-oxo-3,6-dihydropyridin-1(2H)-yl)-3-(4-(cyclopropanecarboxamido)phenyl)propanamido)benzoic Acid] |  | 0.00092 µM | 2.05 µM
O=C(O)c1ccc(NC(=O)[C@H](Cc2ccccc2)N2CCC(c3cc(Cl)ccc3-n3cc(Cl)nn3)=CC2=O)cc1 [Example 142, (S)-4-(2-(4-(5-chloro-2-(4-chloro-1H-1,2,3-triazol-1-yl)phenyl)-6-oxo-3,6-dihydropyridin-1(2H)-yl)-3-phenylpropanamido)benzoic Acid] |  | 0.00173 µM | 2.39 µM
O=C(O)c1ccc(NC(=O)[C@H](Cc2ccccc2)n2ncc(-c3cc(Cl)ccc3-n3cc(C(F)(F)F)nn3)cc2=O)cc1 [Example 143, 4-[(2S)-2-(4-{5-Chloro-2-[4-(trifluoromethyl)-1H-1,2,3-triazol-1-yl]phenyl}-6-oxo-1,6-dihydropyridazin-1-yl)-3-phenyl-propanamido]benzoic Acid] | 0.569 µM | 0.0055 µM | 
O=C(O)c1ccc(NC(=O)[C@H](Cc2ccccc2)n2ncc(-c3c(F)ccc(Cl)c3F)cc2=O)cc1 [Example 144, 4-[(2S)-2-[4-(3-Chloro-2,6-difluorophenyl)-6-oxo-1,6-dihydropyridazin-1-yl]-3-phenylpropanamido]benzoic Acid] | 6.9 µM | 1.03 µM | 
